Values quoted from earlier work in patent publication US8709996B2, “Pharmaceutical treatment process using chitosan or derivative thereof” (Archimedes Development Limited, priority 2003, dated 2014).

Settings: pig, in vivo

Row | bioavailability of octreotide compared to a solution of octreotide alone | Substance
1 | substantial increases in bioavailability | chitosan hydrochloride
2 | substantial increases in bioavailability | trimethyl chitosan chloride
